This note sets out measurements from patent US20230382920A1, “SHMT Inhibitors” (The Trustees of Princeton University, priority 2020, published 2023).

The nature of data set [1]: Pharmacokinetics study of KDG-0271 in male CD1 mice (Example 3). Type of data set: in vivo. The conditions noted are these: for F: bioavailability vs 1 mg/kg IV; for MRT inf: read-out: MRTInf_obs. As to the method: A standard PK study of KDG-0271 was performed in male CD1 mice dosed with a single oral or intraperitoneal dose of KDG-0271. The parameters of the PK study are described in Table 18. Dosing solutions were freshly made prior to use, and were in the form of a suspension. […] For IV and IP, after collection, plasma samples from the same time point were pooled, and the pooled samples were analyzed by LC/MS/MS.
The desired serial concentrations of working solutions were achieved by diluting stock solution of analyte with 50% acetonitrile in water solution. 5 μL of working solutions (1, 2, 4, 20, 100, 200, 1000, 2000 ng/mL) were added to 10 μL of blank CD1 mouse plasma to achieve calibration standards of […] (0.5, 1, 2, 10, 50, 100, 500, 1000 ng/mL) in a total volume of 15 μL. Four quality control samples at 1 ng/mL, 2 ng/mL, 50 ng/mL and 800 ng/mL for plasma were prepared independently of those used for the calibration curves. These QC samples were prepared on the day of analysis in the same way as calibration standards.
15 μL standards, 15 μL QC samples and 15 μL unknown samples (10 μL plasma with 5 μL blank solution) were added to 200 μL of acetonitrile containing IS mixture for precipitating protein. Then the samples were vortexed for 30 seconds. After centrifugation at 4 degrees Celsius, 4000 rpm for 15 minutes, the supernatant was diluted three times with water. 10 μL of diluted supernatant was injected into the LC/MS/MS system for quantitative analysis.
BLOQ=Below quantifiable limit of 1 ng/mL. PK parameters were estimated by non-compartmental model using WinNonlin 6.1. The PO bioavailability (F %) was calculated as following:
AUClast-PO/AUCINF-PO>80%: F=(AUCINF-PO*DoseIV)/(mean AUCINF-IV*DosePO) AUClast-PO/AUCINF-PO≤80% or AUCINF was not available: F=(AUClast-PO*DoseIV)/(mean AUClast-IV*DosePO).
The IP bioavailability (F %) was calculated as following:
AUClast-IP/AUCINF-IP>80%: F=(AUCINF-IP*DoseIV)/(mean AUCINF-IV*DoseIP) AUClast-IP/AUCINF-IP≤80% or AUCINF was not available: F=(AUClast-IP*DoseIV)/(mean AUClast-IV*DoseIP).

Data set [2] concerns HCT116. The data set can be described thus: HCT116 growth inhibition assay. The conditions noted are these: without formate. Type of data set: cell-based. In outline:
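HCT116 cells grown in DMEM with 10% dFBS for 24 h, then exposed to compound with or without 1 mM sodium formate. Growth read after four days by resazurin (10 μg·mL^−1, 1 h) fluorescence.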

The test system of data set [3] is HCT116. The data set can be described thus: HCT116 formate rescue assay (with sodium formate 1 mM). The data set is classed as cell-based. The conditions noted are these: Homo sapiens, HCT-116, 96 h, HCT116 growth. As to the method: Example 5. HCT116 Growth Inhibition and Formate Rescue Assays
3,000 Cells were plated in each well of a 96-well plate with 80 μL of DMEM media supplemented with 10% dFBS, and incubated for 24 hours. Drugs with or without sodium formate (1 mM) were then added to each well to a final volume of 100 μL. Cell growth was measured as fluorescence intensity by resazurin after four days. In short, resazurin was added to each well to a final concentration of 10 μg·mL^−1. After incubation for one hour, fluorescence was measured by a Synergy HT plate reader (BioTek Instruments).

Data set [4] is described as follows: Mouse liver microsome assay (metabolic stability). The data set is classed as in vitro ADME. The conditions noted are these: mouse liver microsomes; for half-life at 2 µM: in vitro half-life; for microsomal CLint at 2 µM: in vitro intrinsic clearance, read-out: Relative Clint. The procedure:
Example 6. Mouse Liver Microsome Assay
Metabolic stability of several compounds in mouse liver microsomes was tested. Briefly, a master solution was prepared according to Table 31.
Two separate experiments were performed: an experiment with cofactors and an experiment without cofactors. In the experiment with cofactors 40 μL of 10 mM NADPH and 40 μL of 20 mM UDPGA were added to the incubations. The final concentrations of microsomes, NADPH and UDPGA were 0.5 mg/mL, 1 mM and 2 mM, respectively. In the experiment without cofactors 10 μL of 20 mg/mL liver microsomes and 80 μL of ultra-pure H2O were added to the incubations. The final concentration of microsomes was 0.5 mg/mL. The mixture was pre-warmed at 37° C. for 5 minutes.
The reaction was started with the addition of 4 μL of 200 μM control compound or test compound solutions. Verapamil was used as positive control in this study. The final concentration of test compound was 2 μM and the final concentration of control compound was 1 μM. The incubation solution was incubated in water bath at 37° C.
Aliquots of 50 μL were taken from the reaction solution at 0.5, 5, 15, 30, 45 and 60 minutes. The reaction was stopped by the addition of five volumes of cold acetonitrile with IS (100 nM alprazolam, 200 nM caffeine and 100 nM tolbutamide). Samples were centrifuged at 3,220 g for 40 minutes. Aliquot of 100 μL of the supernatant was mixed with 100 μL of ultra-pure H2O and then subject to LC-MS/MS analysis.
All calculations were carried out using Microsoft Excel. Peak areas were determined from extracted ion chromatograms. The slope value, k, was determined by linear regression of the natural logarithm of the remaining percentage of the parent drug versus incubation time curve. The in vitro half-life (in vitro t½) was determined from the slope value:
Conversion of the in vitro t1/2(min) into the in vitro intrinsic clearance (in vitro CLint, in μL/min/mg protein) was done using the following equation (mean of duplicate determinations): […]
A general note: Liver microsomes are a subcellular fraction often used to study metabolism.

Setting [5] is: male, mouse, plasma, CD1 mice, 1 mg/kg IV.
Setting [6] is: male, mouse, CD1 mice, plasma, 1 mg/kg IV, read-out: Concentration IV_Mean.
Setting [7] is: mouse, plasma, male CD1 mice, 200 mg/kg IP.
Setting [8] is: mouse, plasma, male CD1 mice, 200 mg/kg PO.
[9] abbreviates: mouse, male CD1 mice, plasma, 200 mg/kg IP, read-out: Concentration IP_Mean.
Where [10] appears, read: mouse, male CD1 mice, plasma, 200 mg/kg PO, read-out: Concentration PO_Mean.

pIC50: −log10 of the molar value. Where a name gives a salt, the structure may show the parent alone. Read-outs that look alike come from different tables or passages of the source. Bounds are passed on as bounds.

Regarding `Cc1n[nH]c2c1C(c1cc(C#CC3CN(C(=O)OC(C)(C)C)C3)cc(CO)c1)(C(C)C)C(C#N)=C(N)O2` (centres unmarked) [KDG-0271, tert-butyl 3-[2-(3-[6-amino-5-cyano-4-isopropyl-3-methyl-1H-pyrano[2,3-c]pyrazol-4-yl]-5-(hydroxymethyl)phenyl)ethynyl]azetidine-1-carboxylate], in data set [1] (CD1 mice, 1 mg/kg IV), the AUC_%Extrap_obs is given as 0.718%, the AUClast/D stood at 99.3 kg·ng·h/mL/mg, the Cl_obs is 167 mL/min/kg and the Vss_obs stood at 3.32 L/kg. Further, in data set [1] (CD1 mice, plasma, 1 mg/kg IV, 8 h), the “Concentration IV_Mean” value is recorded as “BLOQ”. In data set [1] (male CD1 mice, 200 mg/kg IP), this compound had an AUC_%Extrap_obs of 43.6%, an AUClast/D of 40.7 kg·ng·h/mL/mg and an F of 41.0%. In data set [1] (male CD1 mice, 200 mg/kg PO), this compound registered an AUC_%Extrap_obs of 1.28%, an AUClast/D of 19.2 kg·ng·h/mL/mg and an F of 19.4%. Besides, the clinical symptoms result in data set [1] (male CD1 mice, single dose 200 mg/kg PO or 200 mg/kg IP, entire experiment) was “No abnormal clinical symptoms were observed”. In data set [1] (setting [5]), the AUC(0-inf) turned out to be 100 ng·h/mL, the AUC(0-t) came out at 99.3 ng·h/mL, the C0 amounted to 637 ng/mL and the half-life was 47.2 min. Moreover, the MRT inf in data set [1] (setting [5]) came to 19.9 min. The concentration at 0.083 h in data set [1] (male, mouse, CD1 mice, plasma, 1 mg/kg IV, 0.083 h, read-out: Concentration IV_Mean) worked out at 301 ng/mL. For the same compound, in data set [1] (setting [6]), the concentration at 0.25 h was found to be 66.6 ng/mL, the concentration at 0.5 h is 24.8 ng/mL, the concentration at 1 h came out at 9.44 ng/mL and the concentration at 2 h came to 2.87 ng/mL. Further, the concentration at 4 h in data set [1] (setting [6]) came out at 0.632 ng/mL. In data set [1] (setting [7]), the AUC(0-inf) is 14500 ng·h/mL, the AUC(0-t) came out at 8150 ng·h/mL, the Cmax was 2160 ng/mL and the Tmax was 15 min. Moreover, in data set [1] (setting [7]), the half-life is 411 min and the MRT inf amounted to 580 min. Also, in data set [1] (setting [8]), the AUC(0-inf) is 3880 ng·h/mL, the AUC(0-t) amounted to 3830 ng·h/mL, the concentration peaked (Cmax) at 1070 ng/mL and the Tmax turned out to be 60 min. Further, in data set [1] (setting [8]), the half-life was 72 min and the MRT inf was 142 min. In addition, in data set [1] (setting [9]), the concentration at 0.25 h was 2160 ng/mL, the concentration at 0.5 h turned out to be 1530 ng/mL, the concentration at 1 h was 1390 ng/mL and the concentration at 2 h was 1160 ng/mL. In data set [1] (setting [9]), the concentration at 4 h came to 992 ng/mL. Also, in data set [1] (mouse, male CD1 mice, plasma, 200 mg/kg IP, 8 h, read-out: Concentration IP_Mean), the concentration at 8 h stood at 638 ng/mL. Further, in data set [1] (setting [10]), the concentration at 0.25 h is 701 ng/mL, the concentration at 0.5 h stood at 958 ng/mL, the concentration at 1 h turned out to be 1070 ng/mL and the concentration at 2 h stood at 836 ng/mL. The concentration at 4 h in data set [1] (setting [10]) turned out to be 395 ng/mL. Also, in data set [1] (mouse, male CD1 mice, plasma, 200 mg/kg PO, 8 h, read-out: Concentration PO_Mean), the concentration at 8 h was determined as 28.6 ng/mL. Besides, the IC50 entry in the data set on HCT116 [2] is reported as “A″”. The pIC50 in the data set with HCT116 [3] is below 5.30. Moreover, in data set [4], the half-life at 2 µM was 10 to 20 min and the microsomal CLint at 2 µM is 70 to 100 µL/min/mg.
Regarding `Cc1n[nH]c2c1C(c1cc(C#C[C@H]3CC[C@H](NC(=O)OC(C)(C)C)CC3)cc(CO)c1)(C(C)C)C(C#N)=C(N)O2` (some centres unmarked) [KDG-0320, tert-butyl N-[(1r,4r)-4-[2-(3-[6-amino-5-cyano-4-isopropyl-3-methyl-1H-pyrano[2,3-c]pyrazol-4-yl]-5-(hydroxymethyl)phenyl)ethynyl]cyclohexyl]carbamate hydrochloride], in the data set on HCT116 [2], the IC50 result is recorded as “B″”. The pIC50 in the data set on HCT116 [3] was above 7.00. In addition, in data set [4], the half-life at 2 µM is at least 20 min and the microsomal CLint at 2 µM was at most 70 µL/min/mg.
As for `Cc1n[nH]c2c1C(c1cc(C#C[C@H]3C[C@@H](NC(=O)OC(C)(C)C)C3)cc(CO)c1)(C(C)C)C(C#N)=C(N)O2` (some centres unmarked) [KDG-0388, tert-butyl N-[(1s,3s)-3-[2-(3-[6-amino-5-cyano-4-isopropyl-3-methyl-1H-pyrano[2,3-c]pyrazol-4-yl]-5-(hydroxymethyl)phenyl)ethynyl]cyclobutyl]carbamate], in the data set with HCT116 [2], the IC50 entry is listed as “B″”. In addition, in the data set with HCT116 [3], the negative-log IC50 (pIC50) was below 5.30. Also, in data set [4], the half-life at 2 µM was at least 20 min and the microsomal CLint at 2 µM is at most 70 µL/min/mg.

What is called AUC(0-inf) is total exposure, with the tail of the curve extrapolated. Low values mean less exposure, high ones more exposure. For orientation: AUC(0-t) means the area under the concentration-time curve up to a stated or last time point. Read a low AUC(0-t) as less exposure. What is called half-life is the time needed for the level to fall by half in the phase considered. The low end stands for rapid decline, the high end for slow decline. By Cmax is commonly meant the maximum level reached in the sampled fluid or tissue. Broadly, the Tmax is the time from dosing to the highest level. A word on the pIC50: it is the negative decadic logarithm of the IC50, by convention in mol/L.
